Data: paper PMC9027920, “Development of New Thiophene-Containing Triaryl Pyrazoline Derivatives as PI3Kγ Inhibitors” (Molecules, 2022)

Key:
[1] = system: HeLa (human epithelial cervical cancer cell line) cells; experiment: anti-proliferation assay, MTT, HeLa cells; assay type: cell-based
Procedure: (§1) In this section, the anti-proliferation activity of the synthesized compounds 3a–3t was evaluated. Herein, HeLa (human epithelial cervical cancer cell line), HepG2 (human hepatoellular carcinoma cell line) and L02 (human normal hepatocyte line) cells were used. According to the affection on L02 cells, most of the tested compounds were low-toxic. […] Basically, many of the compounds in this series could inhibit the growth of HeLa and HepG2 cells effectively. The anti-proliferation inhibitory activity and the enzymatic inhibition potency indicated the consistent tendencies; the SAR of the observed anti-proliferation activity was also similar to that of the enzymatic inhibition, especially that of PI3Kγ inhibition; thus, the cellular inhibition might be caused by the effect on PI3K. […] Thus, HepG2 cells were selected to conduct further investigations at the protein level.
(§2) In this section, the cells included HeLa (human epithelial cervical cancer cell line), HepG2 (human hepatocellular cancer cell line) and L02 (human normal hepatocyte line) to evaluate the anti-proliferation activity of the synthesized compounds. The cells were cultured in Dulbecco’s modified eagle medium (DMEM, Hyclone) with the addition of 10% fetal bovine serum (FBS, BI), 2 mmol/L L-glutamine, 100 units/mL penicillin-streptomycin (Sigma-Aldrich, Saint Louis, MO, USA), […] (Hyclone, Logan, UT, USA). The environment was 5% CO2 contained atmosphere at 37 °C. The tests of anti-proliferative activity were conducted under a standard method with the typical dye 3-(4,5-dimethylthiazol-2-yl)-2,5-diphenyltetrazolium bromide (MTT) in triplicate. The LX300 Epson Diagnostic micro-plate reader (Nagano, Japan) was used to record the absorbance at 570 nm (OD570).

[2] = system: HepG2 (human hepatocellular cancer cell line) cells; experiment: anti-proliferation assay, MTT, HepG2 cells; assay type: cell-based; conditions: read-out: GI50 HepG2γ
Procedure: as §1, §2

[3] = system: PI3K-mediated Akt phosphorylation in HepG2 cells; experiment: Western blot of Akt and p-Akt in HepG2 cells; assay type: cell-based, human; conditions: 24 h, 0, 0.25, 0.50, 1.00 μM, with increasing concentration
Procedure: For the evaluation of PI3Kγ activity, the downstream signal of PI3Kγ should be checked. Commonly, in the PI3K-Akt-mTOR pathway, the activation of PI3K mediated the phosphorylation of Akt and then triggered the following biological events. Herein, Western blot was conducted to visualize the expression levels of Akt and p-Akt (phosphorylated Akt) in HepG2 cells after incubation with various concentrations of the top hit 3s (Figure 2). GAPDH was used as the internal reference to guarantee cell status. […] This meant that compound 3s has the potential to cause dose-dependent blocking on the PI3K-mediated Akt phosphorylation.
According to the results of the anti-proliferation assay, HepG2 cells were chosen to be incubated with the compound 3s for 24 h. The cells were then trypsinized and collected. Afterwards, the extracting of the total proteins was conducted with a 1 × RIPA lysis buffer (1% NP-40, 50 mM Tris-HCl, 150 mM NaCl, 0.25% deoxycholic acid, 1 mM EDTA containing protease inhibitors PMSF, pH 7.4,) (Amresco, Solon, OH, USA). […]
Figure 2 (A) The expression levels of Akt, phosphorylated Akt (p-Akt) and GAPDH in HepG2 cells incubated with various concentrations of compound 3s (0, 0.25, 0.50, 1.00 μM); (B) Quantitation analysis of the p-Akt level. Data were expressed as Mean ± SD (n = 3). * p < 0.05, ** p < 0.01 and *** p < 0.005 vs. the control.

PI3Kγ = molecular target: T1, PI3Kγ (Homo sapiens, UniProt P48736); experiment: competitive fluorescence polarization kinase activity assay, PI3Kγ; assay type: biochemical; conditions: for IC50: fluorescence polarization kinase kit
T1 construct: purchased Perkin–Elmer
T1 sequence (P48736 whole entry, species assumed): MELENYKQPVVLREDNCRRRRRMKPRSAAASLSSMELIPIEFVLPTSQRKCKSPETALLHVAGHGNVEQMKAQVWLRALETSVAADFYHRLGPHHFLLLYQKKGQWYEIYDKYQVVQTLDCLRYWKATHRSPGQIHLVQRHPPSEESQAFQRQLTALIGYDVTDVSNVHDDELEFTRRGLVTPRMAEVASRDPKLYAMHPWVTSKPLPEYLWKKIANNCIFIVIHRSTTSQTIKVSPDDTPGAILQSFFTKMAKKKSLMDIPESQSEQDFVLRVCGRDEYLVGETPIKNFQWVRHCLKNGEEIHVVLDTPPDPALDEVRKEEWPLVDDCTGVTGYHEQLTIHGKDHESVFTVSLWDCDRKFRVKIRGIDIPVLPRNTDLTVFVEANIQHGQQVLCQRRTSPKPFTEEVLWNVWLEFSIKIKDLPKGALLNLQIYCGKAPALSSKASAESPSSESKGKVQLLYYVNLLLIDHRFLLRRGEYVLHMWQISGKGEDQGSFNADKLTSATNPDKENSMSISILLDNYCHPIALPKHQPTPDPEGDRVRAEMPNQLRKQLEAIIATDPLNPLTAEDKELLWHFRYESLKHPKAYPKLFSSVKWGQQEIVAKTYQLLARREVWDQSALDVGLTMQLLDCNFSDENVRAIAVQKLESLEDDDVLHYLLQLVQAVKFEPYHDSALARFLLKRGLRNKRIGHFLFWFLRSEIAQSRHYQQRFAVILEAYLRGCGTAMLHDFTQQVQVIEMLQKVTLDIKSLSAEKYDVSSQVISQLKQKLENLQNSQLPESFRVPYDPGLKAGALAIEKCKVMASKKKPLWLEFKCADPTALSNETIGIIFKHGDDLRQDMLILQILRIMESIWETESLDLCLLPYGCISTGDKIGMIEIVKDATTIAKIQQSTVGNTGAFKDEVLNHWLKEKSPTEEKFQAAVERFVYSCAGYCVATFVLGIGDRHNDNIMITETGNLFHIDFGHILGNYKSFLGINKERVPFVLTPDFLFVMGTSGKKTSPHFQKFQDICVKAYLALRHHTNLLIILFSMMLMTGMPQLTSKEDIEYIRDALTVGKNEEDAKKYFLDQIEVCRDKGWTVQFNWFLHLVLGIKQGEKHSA
Description: (§3) Initially, we directly tested the inhibition potency of the synthesized compounds on PI3K by using competitive fluorescence polarization kinase kits, as mentioned in previous investigations. […] According to the significance and research maturity of the isoforms as referenced, the PI3Kα and PI3Kγ isoforms were preliminarily included here.
(§4) The competitive fluorescence polarization kinase activity assay was used to test the inhibition potency on PI3K, as mentioned in previous investigations. In general, following the instruction of the Kit (Perkin–Elmer, Waltham, MA, USA), the 10 μL scale of PI3K activity reaction was conducted with the substrate diC8-PI(4,5)P2 in a solution containing 2.5 mM MgCl2, 5 mM HEPES, […] and 10 mM DTT at pH 7.0. Into the 10 μL reaction wells with 50 ng enzyme and […], different concentrations of the tested compounds were added, respectively. The mixture was incubated at room temperature for 3 h, and the reactions were then quenched. Afterwards, the phosphoinositide binding protein and the fluorescent dye-labeled phosphoinositide tracer were added in sequence. In the dark environment in 384-well black nonbinding plates (Corning, Corning, NY, USA), the further incubation lasted for 1 h. With appropriate filters, the polarization values of the corresponding dye were recorded to calculate the enzymatic activity of PI3K in this reacting procedure. This assay was universal for evaluating the activity of different PI3K isoforms.

[4] = cytotoxicity, MTT, L02 cells; assay type: cell-based; conditions: human, L02 cells (human normal hepatocyte line)
Procedure: as §1, §2

PI3Kα = molecular target: T2, PI3Kα (Homo sapiens, UniProt P42336); experiment: competitive fluorescence polarization kinase activity assay, PI3Kα; assay type: biochemical; conditions: fluorescence polarization kinase kit
T2 construct: purchased Perkin–Elmer
T2 sequence (P42336 whole entry, species assumed): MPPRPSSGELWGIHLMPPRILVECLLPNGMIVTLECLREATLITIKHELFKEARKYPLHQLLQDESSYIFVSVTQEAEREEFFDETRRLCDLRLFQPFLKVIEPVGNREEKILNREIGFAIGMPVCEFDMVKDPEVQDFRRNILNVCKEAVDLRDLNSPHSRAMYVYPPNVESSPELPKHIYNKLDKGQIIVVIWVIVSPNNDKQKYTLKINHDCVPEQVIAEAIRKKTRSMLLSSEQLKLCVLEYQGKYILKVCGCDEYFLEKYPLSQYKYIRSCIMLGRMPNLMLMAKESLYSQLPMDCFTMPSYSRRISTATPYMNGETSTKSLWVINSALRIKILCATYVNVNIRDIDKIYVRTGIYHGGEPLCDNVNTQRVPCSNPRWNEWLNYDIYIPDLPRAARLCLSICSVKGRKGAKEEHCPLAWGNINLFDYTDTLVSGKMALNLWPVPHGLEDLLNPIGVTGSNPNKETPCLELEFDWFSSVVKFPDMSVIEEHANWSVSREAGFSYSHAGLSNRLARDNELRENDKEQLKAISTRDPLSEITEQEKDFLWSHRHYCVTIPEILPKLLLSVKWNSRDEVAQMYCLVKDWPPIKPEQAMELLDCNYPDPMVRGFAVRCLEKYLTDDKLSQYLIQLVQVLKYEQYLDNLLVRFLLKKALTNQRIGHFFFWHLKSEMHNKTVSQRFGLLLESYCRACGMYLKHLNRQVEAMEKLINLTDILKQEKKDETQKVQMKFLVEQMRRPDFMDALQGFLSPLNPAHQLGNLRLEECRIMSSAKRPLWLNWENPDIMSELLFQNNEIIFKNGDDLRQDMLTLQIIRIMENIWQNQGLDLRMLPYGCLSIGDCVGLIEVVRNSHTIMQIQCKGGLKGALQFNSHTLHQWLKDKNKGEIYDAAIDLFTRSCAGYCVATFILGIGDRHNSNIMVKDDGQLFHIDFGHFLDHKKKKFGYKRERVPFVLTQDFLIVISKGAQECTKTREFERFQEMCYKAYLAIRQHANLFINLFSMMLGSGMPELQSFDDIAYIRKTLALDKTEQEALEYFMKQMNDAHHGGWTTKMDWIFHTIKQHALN
T2 sequence (P27986 whole entry partner, species assumed): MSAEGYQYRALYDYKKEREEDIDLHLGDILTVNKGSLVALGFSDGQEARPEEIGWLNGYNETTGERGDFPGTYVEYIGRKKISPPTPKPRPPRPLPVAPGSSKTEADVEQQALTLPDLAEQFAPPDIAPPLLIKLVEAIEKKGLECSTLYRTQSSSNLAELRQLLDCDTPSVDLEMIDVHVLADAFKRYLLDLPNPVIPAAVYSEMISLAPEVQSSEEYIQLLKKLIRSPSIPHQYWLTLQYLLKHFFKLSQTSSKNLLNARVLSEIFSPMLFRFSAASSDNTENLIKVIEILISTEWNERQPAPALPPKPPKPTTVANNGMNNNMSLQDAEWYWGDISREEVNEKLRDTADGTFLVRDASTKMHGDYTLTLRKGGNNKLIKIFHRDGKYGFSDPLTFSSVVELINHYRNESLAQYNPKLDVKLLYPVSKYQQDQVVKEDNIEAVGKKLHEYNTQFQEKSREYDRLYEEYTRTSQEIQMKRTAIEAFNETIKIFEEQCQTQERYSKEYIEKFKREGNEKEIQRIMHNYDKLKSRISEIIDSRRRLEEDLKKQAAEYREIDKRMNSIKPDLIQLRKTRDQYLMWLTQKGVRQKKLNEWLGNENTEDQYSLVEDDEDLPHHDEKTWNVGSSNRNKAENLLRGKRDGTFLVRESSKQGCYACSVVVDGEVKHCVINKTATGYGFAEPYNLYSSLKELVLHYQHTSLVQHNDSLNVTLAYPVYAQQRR
Description: as §3, §4

HCT-116 cells = system: HCT-116 cells; design: method as in doi:10.1134/S1068162020030061; conditions: cited from earlier work
BHK cells = system: BHK cells; design: method as in doi:10.1134/S1068162020030061; conditions: cited from earlier work
CACO-2 cells = system: CACO-2 cells; design: method as in doi:10.1134/S1068162020030061; conditions: cited from earlier work

Structure (SMILES)	GI50 [1]	GI50 [2]	Akt level [3]	p-Akt level [3]	IC50 (PI3Kγ)	selectivity index (PI3Kγ; ratio of the IC50 values for PI3Kα and PI3Kγ)	CC50 [4]	melting point	IC50 (PI3Kα)	anti-tumor activity (HCT-116 cells)	cytotoxicity (BHK cells)	anti-tumor activity (CACO-2 cells)
COc1ccc(C(=O)N2N=C(c3ccc4c(c3)OCO4)CC2c2cccs2)cc1OC (stereo not drawn) [3s, (3-(Benzo[d][1,3]dioxol-5-yl)-5-(thiophen-2-yl)-4,5-dihydro-1H-pyrazol-1-yl)(3,4-dimethoxyphenyl)methanone]	13.7 ± 1.1 µM	12.9 ± 1.3 µM	almost remained unchanged	obvious decrease	0.066 ± 0.005 µM	645	181 ± 9 µM	138 to 140 °C	42.6 ± 2.9 µM			
CCOC(=O)c1sc(N2N=C(c3cccs3)CC2c2ccccc2)nc1C (stereo not drawn) [ethyl-4-methyl-2-(5-phenyl-3-(thiophen-2-yl)-4,5-dihydropyrazol-1-yl)thiazole-5-carboxylate]										potent anti-tumor activity	no cytotoxicity	potent anti-tumor activity
COc1ccc(C(=O)N2N=C(c3ccc(C)c(C)c3)CC2c2cccs2)cc1OC (stereo not drawn) [3r, (3,4-Dimethoxyphenyl)(3-(3,4-dimethylphenyl)-5-(thiophen-2-yl)-4,5-dihydro-1H-pyrazol-1-yl)methanone]	6.2 ± 0.22 µM	5.55 ± 0.41 µM			1.37 ± 0.055 µM		52.5 ± 3.2 µM	104 to 106 °C	4.13 ± 0.062 µM			
COc1ccc(C(=O)N2N=C(c3ccc(C)cc3)CC2c2cccs2)cc1OC (stereo not drawn) [3i, (3,4-Dimethoxyphenyl)(5-(thiophen-2-yl)-3-(p-tolyl)-4,5-dihydro-1H-pyrazol-1-yl)methanone]	66.6 ± 1.2 µM	48.7 ± 1.8 µM			3.03 ± 0.085 µM		151 ± 8.9 µM	165 to 167 °C	89.5 ± 3.4 µM			
